How the values were obtained:
Assay in all cases: relative viability (nuclei count vs DMSO), 5 days (fraction); higher = more cells survive
PAC-1 + AZD7762 = compound: C=CCc1cccc(/C=N/NC(=O)CN2CCN(Cc3ccccc3)CC2)c1O [PAC-1] + NC(=O)Nc1cc(-c2cccc(F)c2)sc1C(=O)N[C@H]1CCCNC1 [AZD7762] (partner 0.2 µM)
Procedure, shortened: (§1)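 Dosing by pin tool came one day after lung cancer cell lines were seeded in 1536-well plates, using either one drug or a fixed anchor-drug dose plus five library-drug doses (not always all listed) in √10 steps. After 5 days, nuclei were counted on 4× images. Relative viability is treated-well nuclei count divided by vehicle-well nuclei count, and values are medians of duplicate plates.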

PAC-1 + Decitabine = compound: C=CCc1cccc(/C=N/NC(=O)CN2CCN(Cc3ccccc3)CC2)c1O [PAC-1] + Nc1ncn([C@H]2C[C@H](O)[C@@H](CO)O2)c(=O)n1 [Decitabine] (partner 2 µM)
Procedure, shortened: as §1

Ibrutinib + Pemetrexed = compound: C=CC(=O)N1CCC[C@@H](n2nc(-c3ccc(Oc4ccccc4)cc3)c3c(N)ncnc32)C1 [Ibrutinib] + Nc1nc2[nH]cc(CCc3ccc(C(=O)N[C@@H](CCC(=O)O)C(=O)O)cc3)c2c(=O)[nH]1 [Pemetrexed] (partner 0.2 µM)
Procedure, shortened: as §1

PAC-1 + Alpelisib = compound: C=CCc1cccc(/C=N/NC(=O)CN2CCN(Cc3ccccc3)CC2)c1O [PAC-1] + Cc1nc(NC(=O)N2CCC[C@H]2C(N)=O)sc1-c1ccnc(C(C)(C)C(F)(F)F)c1 [Alpelisib] (partner 2 µM)
Procedure, shortened: as §1

Cell Line	relative viability (PAC-1 + AZD7762; first compound 0.02 µM)	relative viability (PAC-1 + AZD7762; first compound 0.06325 µM)	relative viability (PAC-1 + AZD7762; first compound 0.2 µM)	relative viability (PAC-1 + AZD7762; first compound 2 µM)	relative viability (PAC-1 + Decitabine; first compound 0.02 µM)	relative viability (PAC-1 + Decitabine; first compound 0.06325 µM)	relative viability (PAC-1 + Decitabine; first compound 0.2 µM)	relative viability (PAC-1 + Decitabine; first compound 2 µM)	relative viability (Ibrutinib + Pemetrexed; first compound 0.005 µM)	relative viability (Ibrutinib + Pemetrexed; first compound 0.01581 µM)	relative viability (Ibrutinib + Pemetrexed; first compound 0.05 µM)	relative viability (Ibrutinib + Pemetrexed; first compound 0.1581 µM)	relative viability (Ibrutinib + Pemetrexed; first compound 0.5 µM)	relative viability (PAC-1 + Alpelisib; first compound 0.02 µM)	relative viability (PAC-1 + Alpelisib; first compound 0.06325 µM)	relative viability (PAC-1 + Alpelisib; first compound 0.2 µM)	relative viability (PAC-1 + Alpelisib; first compound 2 µM)
NCI-H23	0.242	0.349	0.244	0.314	0.322	0.303	0.294	0.284	0.698	0.614	0.845	0.527	0.812	0.529	0.692	0.741	0.764
NCI-H322M	0.573	0.618	0.706	0.584	0.691	0.711	0.689	0.751	0.659	0.572	0.605	0.537	0.536	0.7	0.857	0.794	0.911
NCI-H358	0.51	0.507	0.55	0.402	0.229	0.219	0.209	0.16	0.165	0.18	–	0.171	0.16	0.811	0.836	0.924	0.572
NCI-H441	0.994	1.15	1.19	1.1	0.256	0.258	0.171	0.23	0.287	0.269	0.293	0.263	0.301	0.629	0.671	0.679	0.57
NCI-H460	0.548	0.674	0.602	0.656	0.436	0.424	0.242	0.451	0.0608	0.0607	0.0632	0.0616	0.1	0.354	0.534	0.433	0.327
NCI-H596	1.11	1.2	1.09	1.13	0.915	1	0.93	0.942	0.499	0.487	0.482	0.409	0.543	0.428	0.561	0.472	0.446
NCI-H647	0.44	0.589	0.502	0.467	0.358	0.403	0.328	0.321	0.197	0.183	0.205	0.194	0.421	0.995	1.08	1.14	0.709
NCI-H650	0.945	0.943	1.02	0.951	0.307	0.331	0.298	0.45	1.03	0.881	0.885	1.15	1.1	1.09	1.23	1.23	1.17
NCI-H838	0.972	0.964	0.936	0.925	0.425	0.45	0.462	0.445	0.255	0.236	0.246	0.265	0.292	1.07	1.01	0.962	1.04
NCI-H1355	0.634	0.721	0.795	0.785	0.32	0.363	0.335	0.373	–	0.944	0.987	1.06	0.951	0.861	0.809	0.753	0.822
NCI-H1395	0.427	0.415	0.352	0.381	0.741	0.685	0.632	0.712	0.752	0.934	0.804	0.797	1.07	1.19	1.02	1.02	1.02
NCI-H1437	1.11	1.09	1.12	0.844	0.568	0.587	0.583	0.537	0.366	0.33	0.361	0.296	0.408	0.953	0.932	0.906	0.716
NCI-H1651	0.44	0.358	0.447	0.467	0.649	0.552	0.39	0.675	0.436	0.661	0.572	0.479	0.558	0.917	1.12	0.848	0.867
NCI-H1666	0.905	0.816	0.896	0.809	0.721	0.763	0.713	0.713	0.716	0.984	0.793	0.859	0.871	0.917	0.971	1.06	0.993
NCI-H1734	0.515	0.615	0.532	0.546	0.52	0.554	0.37	0.462	0.423	0.415	0.461	0.387	0.489	0.662	0.664	0.748	0.642
NCI-H1755	0.45	0.45	0.426	0.415	0.764	0.712	0.675	0.732	0.42	0.481	0.475	0.456	0.516	0.925	0.918	0.865	0.826

Cell Line	relative viability (PAC-1 + AZD7762; first compound 0.02 µM)	relative viability (PAC-1 + AZD7762; first compound 0.06325 µM)	relative viability (PAC-1 + AZD7762; first compound 0.2 µM)	relative viability (PAC-1 + AZD7762; first compound 2 µM)	relative viability (PAC-1 + Decitabine; first compound 0.02 µM)	relative viability (PAC-1 + Decitabine; first compound 0.06325 µM)	relative viability (PAC-1 + Decitabine; first compound 0.2 µM)	relative viability (PAC-1 + Decitabine; first compound 2 µM)	relative viability (Ibrutinib + Pemetrexed; first compound 0.005 µM)	relative viability (Ibrutinib + Pemetrexed; first compound 0.01581 µM)	relative viability (Ibrutinib + Pemetrexed; first compound 0.05 µM)	relative viability (Ibrutinib + Pemetrexed; first compound 0.1581 µM)	relative viability (Ibrutinib + Pemetrexed; first compound 0.5 µM)	relative viability (PAC-1 + Alpelisib; first compound 0.02 µM)	relative viability (PAC-1 + Alpelisib; first compound 0.06325 µM)	relative viability (PAC-1 + Alpelisib; first compound 0.2 µM)	relative viability (PAC-1 + Alpelisib; first compound 2 µM)
NCI-H1792	0.673	0.672	0.562	0.679	0.539	0.521	0.482	0.483	–	0.67	0.96	0.818	0.596	0.717	0.77	0.722	0.677
NCI-H1793	0.501	0.587	0.547	0.568	0.48	0.589	0.396	0.542	0.526	0.877	0.664	0.515	0.501	0.681	0.615	0.894	0.621
NCI-H1915	0.724	0.681	0.546	0.695	0.266	0.253	0.245	0.27	0.532	0.599	0.587	0.513	0.715	1.04	1.08	0.991	1.02
NCI-H1944	0.428	0.542	0.502	0.516	0.435	0.459	0.466	0.456	0.624	0.514	0.643	0.518	0.629	0.78	0.849	0.813	0.752
NCI-H1975	0.669	0.666	0.755	0.698	0.413	0.408	0.333	0.388	0.292	0.28	0.315	0.277	0.309	0.597	0.678	0.621	0.642
NCI-H1993	0.829	0.797	0.748	0.837	0.737	0.58	0.595	0.541	0.444	0.58	0.609	0.567	0.597	0.701	0.645	0.678	0.672
NCI-H2085	0.994	1	0.907	1.1	0.554	0.504	0.572	0.492	0.878	0.828	0.759	0.621	0.671	0.949	0.944	0.921	0.916
NCI-H2087	1.36	1.4	1.09	1.44	0.303	0.305	0.233	0.28	0.639	0.626	0.748	–	0.694	1.07	1.02	1	1.1
NCI-H2126	1.04	0.993	0.963	1.05	0.589	0.584	0.541	0.612	0.509	0.653	0.717	0.671	0.69	0.756	0.729	0.717	0.703
NCI-H2170	0.874	0.856	0.928	0.846	0.477	0.493	0.42	0.453	0.248	0.266	0.264	0.259	0.21	0.746	0.859	0.752	0.7
NCI-H2347	0.825	0.756	0.675	0.902	0.637	0.598	0.606	0.621	0.454	0.4	0.434	0.462	0.463	1.08	1.13	0.992	1.05
NCI-H2405	0.648	0.828	0.86	0.802	0.759	0.821	0.707	0.765	1.01	0.97	–	–	1.06	0.811	0.9	0.774	0.873
NCI-H3122	0.896	0.906	0.93	0.988	0.489	0.455	0.362	0.446	0.214	0.203	0.219	0.191	0.301	0.66	0.808	0.837	0.747
PC-3 [JPC-3]	0.848	0.985	0.883	0.877	0.938	0.861	0.698	0.77	1.14	0.995	0.72	0.624	0.365	1	1.09	0.98	0.972
PC-14	0.382	0.322	0.45	0.343	0.214	0.235	0.172	0.221	0.157	0.138	0.133	0.121	0.201	0.989	0.856	0.938	0.962
RERF-LC-KJ	1.08	0.883	0.934	1.01	0.66	0.65	0.66	0.661	0.462	0.455	0.512	0.433	0.569	0.768	0.8	1.33	0.783
